Measured values reported in PubChem BioAssay AID248 (DTP/NCI, 2004).
Toxic doses and inconclusive results are not listed.

Tested on: L1210 leukemia ip in BDF1 mice, survival T/C
Assay: NCI In Vivo Anticancer Drug Screen. Data for tumor model L1210 Leukemia (intraperitoneal) in B6D2F1 (BDF1) mice
Details: endpoint: mean survival time, higher = longer survival
Procedure, shortened: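 Transplanted-tumor mice were given test agent; controls received vehicle only. Survival readings from the two groups were divided (treated over control).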

[1] = dose: 100.0 mg/kg/injection, schedule: Q04DX002 (ip), vehicle: Klucel (hydroxypropylcellulose) (HPC)
[2] = dose: 100.0 mg/kg/injection, schedule: Q01DX001 (ip), vehicle: Klucel (hydroxypropylcellulose) (HPC)
[3] = dose: 200.0 mg/kg/injection, schedule: Q01DX001 (ip), vehicle: Klucel (hydroxypropylcellulose) (HPC)
[4] = dose: 25.0 mg/kg/injection, schedule: Q01DX009 (ip), vehicle: saline
[5] = dose: 50.0 mg/kg/injection, schedule: Q01DX009 (ip), vehicle: saline
[6] = dose: 50.0 mg/kg/injection, schedule: Q04DX003 (ip), vehicle: saline
[7] = dose: 100.0 mg/kg/injection, schedule: Q01DX001 (ip), vehicle: saline
[8] = dose: 100.0 mg/kg/injection, schedule: Q04DX003 (ip), vehicle: saline
[9] = dose: 100.0 mg/kg/injection, schedule: Q01DX009 (ip), vehicle: saline
[10] = dose: 100.0 mg/kg/injection, schedule: Q04DX003 (ip), vehicle: Klucel (hydroxypropylcellulose) (HPC)
[11] = dose: 200.0 mg/kg/injection, schedule: Q04DX003 (ip), vehicle: Klucel (hydroxypropylcellulose) (HPC)

Structure (SMILES): Cc1ccc(S(=O)(=O)OC2C(C3CSC(=O)O3)OC3OC(C)(C)OC32)cc1 (centres undefined)
- T/C (dose: 25.0 mg/kg/injection, schedule: Q04DX002 (ip), vehicle: Klucel (hydroxypropylcellulose) (HPC)): 103 % of control
- T/C (dose: 50.0 mg/kg/injection, schedule: Q04DX002 (ip), vehicle: Klucel (hydroxypropylcellulose) (HPC)): 100 % of control
- T/C [1]: 97 % of control

Structure (SMILES): O=C(Nc1ccc(C2=NCCN2)cc1)c1cccc(C(=O)Nc2ccc(C3=NCCN3)cc2)c1Cl
- T/C (dose: 4.5 mg/kg/injection, schedule: Q01DX Z (ip), vehicle: carboxymethylcellulose (CMC)): 105 % of control
- T/C (dose: 9.0 mg/kg/injection, schedule: Q01DX Z (ip), vehicle: carboxymethylcellulose (CMC)): 117 % of control
- T/C (dose: 18.0 mg/kg/injection, schedule: Q01DX Z (ip), vehicle: carboxymethylcellulose (CMC)): 155 % of control
- T/C (dose: 25.0 mg/kg/injection, schedule: Q01DX Z (ip), vehicle: carboxymethylcellulose (CMC)): 211 % of control
- T/C (dose: 37.0 mg/kg/injection, schedule: Q01DX Z (ip), vehicle: carboxymethylcellulose (CMC)): 184 % of control
- T/C (dose: 62.0 mg/kg/injection, schedule: Q01DX Z (oral), vehicle: carboxymethylcellulose (CMC)): 109 % of control
- T/C (dose: 125.0 mg/kg/injection, schedule: Q01DX Z (oral), vehicle: carboxymethylcellulose (CMC)): 118 % of control
- T/C (dose: 250.0 mg/kg/injection, schedule: Q01DX Z (oral), vehicle: carboxymethylcellulose (CMC)): 118 % of control
- T/C (dose: 500.0 mg/kg/injection, schedule: Q01DX Z (oral), vehicle: carboxymethylcellulose (CMC)): 98 % of control

Structure (SMILES): CC1N=C(c2ccccc2)C2(c3ccccc3)C(C)N12 (centres undefined)
- T/C [2]: 97 % of control
- T/C [3]: 94 % of control

Structure (SMILES): O=C1C=CC(=O)c2cc(Cl)c(Cl)cc21
- T/C (dose: 3.12 mg/kg/injection, schedule: Q01DX009 (ip), vehicle: saline): 89 % of control
- T/C (dose: 6.25 mg/kg/injection, schedule: Q01DX009 (ip), vehicle: saline): 90 % of control
- T/C (dose: 6.25 mg/kg/injection, schedule: Q04DX003 (ip), vehicle: saline): 96 % of control
- T/C (dose: 12.5 mg/kg/injection, schedule: Q01DX001 (ip), vehicle: saline): 98 % of control
- T/C (dose: 12.5 mg/kg/injection, schedule: Q04DX003 (ip), vehicle: saline): 98 % of control
- T/C (dose: 25.0 mg/kg/injection, schedule: Q01DX001 (ip), vehicle: saline): 90 % of control

Structure (SMILES): O=C(CCCOc1ccccc1)NCc1ccccc1[N+](=O)[O-]
- T/C [2]: 92 % of control
- T/C [3]: 96 % of control
- T/C (dose: 400.0 mg/kg/injection, schedule: Q01DX001 (ip), vehicle: Klucel (hydroxypropylcellulose) (HPC)): 102 % of control

Structure (SMILES): C[N+]1(CCC(c2ccccc2)c2ccccc2)CCCCC1
- T/C (dose: 12.5 mg/kg/injection, schedule: Q01DX009 (ip), vehicle: saline): 97 % of control
- T/C [4]: 96 % of control
- T/C [5]: 96 % of control

Structure (SMILES): O=P(NCCCl)(NCCCl)c1ccccc1
- T/C [1]: 118 % of control
- T/C (dose: 200.0 mg/kg/injection, schedule: Q04DX002 (ip), vehicle: Klucel (hydroxypropylcellulose) (HPC)): 100 % of control
- T/C (dose: 400.0 mg/kg/injection, schedule: Q04DX002 (ip), vehicle: Klucel (hydroxypropylcellulose) (HPC)): 96 % of control

Structure (SMILES): Oc1c(CN2CCCC2)cc(Nc2nccc(/C=C/c3ccc(Cl)cc3)n2)cc1CN1CCCC1
- T/C (dose: 25.0 mg/kg/injection, schedule: Q04DX003 (ip), vehicle: saline): 96 % of control
- T/C (dose: 50.0 mg/kg/injection, schedule: Q01DX001 (ip), vehicle: saline): 96 % of control
- T/C [6]: 96 % of control
- T/C [7]: 93 % of control
- T/C [8]: 90 % of control

Structure (SMILES): O=C(Cn1ccc(=O)[nH]c1=O)N1CCOCC1
- T/C (dose: 100.0 mg/kg/injection, schedule: Q01DX009 (ip), vehicle: water): 91 % of control
- T/C (dose: 100.0 mg/kg/injection, schedule: Q04DX003 (ip), vehicle: water): 100 % of control
- T/C (dose: 200.0 mg/kg/injection, schedule: Q01DX009 (ip), vehicle: water): 90 % of control
- T/C (dose: 200.0 mg/kg/injection, schedule: Q04DX003 (ip), vehicle: water): 92 % of control
- T/C (dose: 400.0 mg/kg/injection, schedule: Q01DX009 (ip), vehicle: water): 104 % of control
- T/C (dose: 400.0 mg/kg/injection, schedule: Q04DX003 (ip), vehicle: water): 94 % of control

Structure (SMILES): CCOC(=O)C(CC(C(=O)OCC)C(=O)OCC)C(=O)OCC
- T/C (dose: 75.0 mg/kg/injection, schedule: Q01DX009 (ip), vehicle: saline): 98 % of control
- T/C [8]: 113 % of control
- T/C (dose: 150.0 mg/kg/injection, schedule: Q01DX009 (ip), vehicle: saline): 98 % of control
- T/C (dose: 200.0 mg/kg/injection, schedule: Q04DX003 (ip), vehicle: saline): 97 % of control
- T/C (dose: 300.0 mg/kg/injection, schedule: Q01DX009 (ip), vehicle: saline): 95 % of control
- T/C (dose: 400.0 mg/kg/injection, schedule: Q04DX003 (ip), vehicle: saline): 97 % of control

Structure (SMILES): O=C1OC(=O)C2C3c4ccccc4C(c4ccccc43)C12 (centres undefined)
- T/C [4]: 103 % of control
- T/C [5]: 98 % of control
- T/C [6]: 96 % of control
- T/C [7]: 98 % of control
- T/C [9]: 114 % of control
- T/C [10]: 103 % of control
- T/C [8]: 98 % of control
- T/C (dose: 200.0 mg/kg/injection, schedule: Q01DX001 (ip), vehicle: saline): 88 % of control
- T/C [11]: 90 % of control

Structure (SMILES): Nc1nc(N)nc(C(=O)Cc2ccccc2)n1
- T/C (dose: 50.0 mg/kg/injection, schedule: Q01DX009 (ip), vehicle: saline with Tween-80): 108 % of control
- T/C (dose: 100.0 mg/kg/injection, schedule: Q01DX009 (ip), vehicle: saline with Tween-80): 101 % of control
- T/C (dose: 200.0 mg/kg/injection, schedule: Q01DX009 (ip), vehicle: saline with Tween-80): 94 % of control

Structure (SMILES): O=Nc1ccc(-[n+]2ccccc2)c([N+](=O)[O-])c1
- T/C (dose: 75.0 mg/kg/injection, schedule: Q01DX001 (ip), vehicle: saline): 98 % of control

Structure (SMILES): CCCNC(=O)Oc1ccccc1C(=O)NCO
- T/C (dose: 100.0 mg/kg/injection, schedule: Q01DX009 (ip), vehicle: other): 101 % of control
- T/C (dose: 200.0 mg/kg/injection, schedule: Q01DX009 (ip), vehicle: other): 96 % of control

Structure (SMILES): N#Cc1ccccc1NC(=O)N(CCCl)N=O
- T/C (dose: 2.0 mg/kg/injection, schedule: Q01DX001 (ip), vehicle: carboxymethylcellulose (CMC)): 119 % of control
- T/C (dose: 13.0 mg/kg/injection, schedule: Q01DX009 (ip), vehicle: carboxymethylcellulose (CMC)): 124 % of control
- T/C (dose: 13.3 mg/kg/injection, schedule: Q01DX001 (ip), vehicle: carboxymethylcellulose (CMC)): 120 % of control
- T/C (dose: 20.0 mg/kg/injection, schedule: Q01DX009 (ip), vehicle: carboxymethylcellulose (CMC)): 105 % of control
- T/C (dose: 30.0 mg/kg/injection, schedule: Q01DX009 (ip), vehicle: carboxymethylcellulose (CMC)): 108 % of control

Structure (SMILES): c1ccc2c(c1)-c1cccc3cccc-2c13
- T/C (dose: 100.0 mg/kg/injection, schedule: Q01DX009 (ip), vehicle: Klucel (hydroxypropylcellulose) (HPC)): 95 % of control
- T/C [10]: 95 % of control
- T/C (dose: 200.0 mg/kg/injection, schedule: Q01DX009 (ip), vehicle: Klucel (hydroxypropylcellulose) (HPC)): 95 % of control
- T/C [11]: 95 % of control
- T/C (dose: 400.0 mg/kg/injection, schedule: Q01DX009 (ip), vehicle: Klucel (hydroxypropylcellulose) (HPC)): 101 % of control
- T/C (dose: 400.0 mg/kg/injection, schedule: Q04DX003 (ip), vehicle: Klucel (hydroxypropylcellulose) (HPC)): 101 % of control

Structure (SMILES): CC(=O)OCCN1CCCCC1
- T/C (dose: 100.0 mg/kg/injection, schedule: Q04DX002 (ip), vehicle: saline): 94 % of control
- T/C (dose: 200.0 mg/kg/injection, schedule: Q04DX002 (ip), vehicle: saline): 94 % of control
- T/C (dose: 400.0 mg/kg/injection, schedule: Q04DX002 (ip), vehicle: saline): 97 % of control

Structure (SMILES): Cn1c(=O)c2c(nc(OC3CCC=CO3)n2C)n(C)c1=O (centres undefined)
- T/C (dose: 50.0 mg/kg/injection, schedule: Q01DX001 (ip), vehicle: other): 98 % of control
- T/C (dose: 100.0 mg/kg/injection, schedule: Q01DX001 (ip), vehicle: other): 95 % of control
- T/C (dose: 200.0 mg/kg/injection, schedule: Q01DX001 (ip), vehicle: other): 88 % of control

Structure (SMILES): [N-]=[N+]=Nc1ccc2[nH]c3ccccc3c(=O)c2c1
- T/C [5]: 90 % of control
- T/C [9]: 93 % of control
- T/C (dose: 100.0 mg/kg/injection, schedule: Q04DX003 (ip), vehicle: acetone): 92 % of control
- T/C (dose: 200.0 mg/kg/injection, schedule: Q01DX009 (ip), vehicle: saline): 95 % of control
- T/C (dose: 200.0 mg/kg/injection, schedule: Q04DX003 (ip), vehicle: acetone): 97 % of control
- T/C (dose: 400.0 mg/kg/injection, schedule: Q04DX003 (ip), vehicle: acetone): 97 % of control
